Experimental data from patent US4388311A, “Method for the induction of menses” (G. D. Searle & Co., priority 1982, dated 1983).
Where “and” joins values, the source holds several entries; their conditions need not be identical. Identical values can stand only once.

Key:
Type in all cases: in vivo, rat
pregnancy in rats [1] = experiment: Termination of pregnancy in rats, compounds administered subcutaneously (Table 2); conditions: for Serum Progesterone (Percent Control) / Serum Progesterone ng/ml + S.E.: serum day 11, 24 hours after initial injection
Procedure: (§1) The following tables list the results for a compound of Formula IV as compared with a control of previously known 2α-cyano-17β-hydroxy-3-oxo-4,4,17α-trimethylandrost-5-end(Cyanoketone) for termination of pregnancy.
^1 Compounds given subcutaneously in corn oil vehicle once daily on
days 10 through 13 of pregnancy. Serum for progesterone determination was
drawn on day 11 of pregnancy, 24 hours after the initial injection of
(§2) compound. The animals were autopsied on day 14 of pregnancy.
^2 Serum progesterone values determined by RIA at Interlab Associates

pregnancy in rats [2] = experiment: Pregnancy termination in rats, compounds administered intragastrically for four days (Table 1); conditions: for Serum Progesterone (Percent Control) / Serum Progesterone ng/ml + S.E.: serum day 11, 24 hours after initial injection; for Adrenal Wt. mg + SE / Fetal Viability: Normal Fetuses/Implantation Sites / Fetal Viability: Normal Fetuses/Implantation Sites (Percent) / Number of Rats Pregnant/Number of Rats Treated / Number of Rats Pregnant/Number of Rats Treated (Percent): autopsy day 14
Procedure: as §1
(§3) ^1 Compounds were administered intragastrically once daily on days 10
through 13 of pregnancy in a vehicle consisting of PEG400, propylene
glycol and 100 percent ethanol (50:40:10, v:v:v). Serum for progesterone
determination was drawn on day 11 of pregnancy, 24 hours after the initia
injection of compound. The animals were autopsied on day 14 of pregnancy.

pregnancy in rats [3] = experiment: Pregnancy termination in rats, compounds administered intragastrically on day 10 of pregnancy (Table 3); conditions: for Serum Progesterone (Percent Control) / Serum Progesterone ng/ml + S.E.: serum day 11, 24 hours after injection; for Adrenal Wt. mg + SE / Fetal Viability: Normal Fetuses/Implantation Sites / Fetal Viability: Normal Fetuses/Implantation Sites (Percent) / Number of Rats Pregnant/Number of Rats Treated / Number of Rats Pregnant/Number of Rats Treated (Percent): autopsy day 14
Procedure: as §1, §3
of pregnancy in a vehicle consisting of PEG400, propylene glycol and 100
percent ethanol (50:40:10, v:v:v). Serum for progesterone determination
was drawn on day 11 of pregnancy, 24 hours after the initial injection of
as §2

[4] = 2 mg/kg/day subcutaneously days 10-13 of pregnancy
[5] = 2 mg/kg/day subcutaneously in corn oil once daily days 10-13 of pregnancy, autopsy day 14
[6] = 4 mg/kg/day subcutaneously days 10-13 of pregnancy
[7] = 4 mg/kg/day subcutaneously in corn oil once daily days 10-13 of pregnancy, autopsy day 14
[8] = 8 mg/kg/day subcutaneously days 10-13 of pregnancy
[9] = 8 mg/kg/day subcutaneously in corn oil once daily days 10-13 of pregnancy, autopsy day 14
[10] = 16 mg/kg/day subcutaneously days 10-13 of pregnancy, 16 mg/kg/day
[11] = 16 mg/kg/day subcutaneously in corn oil once daily days 10-13 of pregnancy, autopsy day 14
[12] = 16 mg/kg/day subcutaneously in corn oil once daily days 10-13 of pregnancy, autopsy day 14, 16 mg/kg/day
[13] = 2 mg/kg/day intragastrically days 10-13 of pregnancy
[14] = 2 mg/kg/day intragastrically once daily days 10-13 of pregnancy
[15] = 4 mg/kg/day intragastrically days 10-13 of pregnancy
[16] = 4 mg/kg/day intragastrically once daily days 10-13 of pregnancy
[17] = 8 mg/kg/day intragastrically days 10-13 of pregnancy
[18] = 8 mg/kg/day intragastrically once daily days 10-13 of pregnancy
[19] = 16 mg/kg/day intragastrically days 10-13 of pregnancy
[20] = 16 mg/kg/day intragastrically once daily days 10-13 of pregnancy
[21] = 4 mg/kg intragastrically on day 10 of pregnancy
[22] = 4 mg/kg intragastrically once on day 10 of pregnancy
[23] = 8 mg/kg intragastrically on day 10 of pregnancy
[24] = 8 mg/kg intragastrically once on day 10 of pregnancy
[25] = 16 mg/kg intragastrically on day 10 of pregnancy
[26] = 16 mg/kg intragastrically once on day 10 of pregnancy

SMILES: CC(=O)OC1=C(C#N)C[C@@]2(C)C(=CC[C@@H]3[C@@H]2CC[C@@]2(C)[C@H]3CC[C@]2(C)O)C1(C)C [3-(acetyloxy)-17β-hydroxy-4,4,17α-trimethylandrosta-2,5-diene-2-carbonitrile]
- Serum Progesterone (Percent Control) (pregnancy in rats [1]; [4]): 91 Percent Control
- Serum Progesterone ng/ml + S.E. (pregnancy in rats [1]; [4]): 52.3 + 2.8 ng/ml
- Adrenal Wt. mg + SE (pregnancy in rats [1]; [5]): 81.2 + 3.2 mg
- Fetal Viability: Normal Fetuses/Implantation Sites (pregnancy in rats [1]; [5]): 101/109
- Fetal Viability: Normal Fetuses/Implantation Sites (Percent) (pregnancy in rats [1]; [5]): 93%
- Number of Rats Pregnant/Number of Rats Treated (pregnancy in rats [1]; [5]): 9/9
- Number of Rats Pregnant/Number of Rats Treated (Percent) (pregnancy in rats [1]; [5]): 100%
- Serum Progesterone (Percent Control) (pregnancy in rats [1]; [6]): 32 Percent Control
- Serum Progesterone ng/ml + S.E. (pregnancy in rats [1]; [6]): 14.2 + 4.9 ng/ml
- Adrenal Wt. mg + SE (pregnancy in rats [1]; [7]): 72.9 + 3.8 mg
- Fetal Viability: Normal Fetuses/Implantation Sites (pregnancy in rats [1]; [7]): 21/72
- Fetal Viability: Normal Fetuses/Implantation Sites (Percent) (pregnancy in rats [1]; [7]): 29%
- Number of Rats Pregnant/Number of Rats Treated (pregnancy in rats [1]; [7]): 2/7
- Number of Rats Pregnant/Number of Rats Treated (Percent) (pregnancy in rats [1]; [7]): 29%
- Serum Progesterone (Percent Control) (pregnancy in rats [1]; [8]): 29 Percent Control
- Serum Progesterone ng/ml + S.E. (pregnancy in rats [1]; [8]): 12.7 + 1.4 ng/ml
- Adrenal Wt. mg + SE (pregnancy in rats [1]; [9]): 83.9 + 2.0 mg
- Fetal Viability: Normal Fetuses/Implantation Sites (pregnancy in rats [1]; [9]): 0/112
- Fetal Viability: Normal Fetuses/Implantation Sites (Percent) (pregnancy in rats [1]; [9]): 0%
- Number of Rats Pregnant/Number of Rats Treated (pregnancy in rats [1]; [9]): 0/9
- Number of Rats Pregnant/Number of Rats Treated (Percent) (pregnancy in rats [1]; [9]): 0%
- Serum Progesterone (Percent Control) (pregnancy in rats [1]; [10]): 26 Percent Control and 36 Percent Control
- Serum Progesterone ng/ml + S.E. (pregnancy in rats [1]; [10]): 13.1 + 1.4 ng/ml and 15.7 + 2.8 ng/ml
- Fetal Viability: Normal Fetuses/Implantation Sites (Percent) (pregnancy in rats [1]; [11]): 0%
- Number of Rats Pregnant/Number of Rats Treated (pregnancy in rats [1]; [11]): 0/8
- Number of Rats Pregnant/Number of Rats Treated (Percent) (pregnancy in rats [1]; [11]): 0%
- Adrenal Wt. mg + SE (pregnancy in rats [1]; [12]): 93.8 + 4.9 mg and 98.3 + 2.8 mg
- Fetal Viability: Normal Fetuses/Implantation Sites (pregnancy in rats [1]; [12]): 0/98 and 0/84
- Serum Progesterone (Percent Control) (pregnancy in rats [2]; [13]): 109 Percent Control
- Serum Progesterone ng/ml + S.E. (pregnancy in rats [2]; [13]): 49.6 + 6.2 ng/ml
- Adrenal Wt. mg + SE (pregnancy in rats [2]; [14]): 68.9 + 2.2 mg
- Fetal Viability: Normal Fetuses/Implantation Sites (pregnancy in rats [2]; [14]): 60/89
- Fetal Viability: Normal Fetuses/Implantation Sites (Percent) (pregnancy in rats [2]; [14]): 67%
- Number of Rats Pregnant/Number of Rats Treated (pregnancy in rats [2]; [14]): 7/9
- Number of Rats Pregnant/Number of Rats Treated (Percent) (pregnancy in rats [2]; [14]): 78%
- Serum Progesterone (Percent Control) (pregnancy in rats [2]; [15]): 29 Percent Control
- Serum Progesterone ng/ml + S.E. (pregnancy in rats [2]; [15]): 13.4 + 3.9 ng/ml
- Adrenal Wt. mg + SE (pregnancy in rats [2]; [16]): 68.6 + 2.3 mg
- Fetal Viability: Normal Fetuses/Implantation Sites (pregnancy in rats [2]; [16]): 0/112
- Fetal Viability: Normal Fetuses/Implantation Sites (Percent) (pregnancy in rats [2]; [16]): 0%
- Number of Rats Pregnant/Number of Rats Treated (pregnancy in rats [2]; [16]): 0/10
- Number of Rats Pregnant/Number of Rats Treated (Percent) (pregnancy in rats [2]; [16]): 0%
- Serum Progesterone (Percent Control) (pregnancy in rats [2]; [17]): 40 Percent Control
- Serum Progesterone ng/ml + S.E. (pregnancy in rats [2]; [17]): 18.1 + 2.5 ng/ml
- Adrenal Wt. mg + SE (pregnancy in rats [2]; [18]): 70.3 + 3.1 mg
- Fetal Viability: Normal Fetuses/Implantation Sites (pregnancy in rats [2]; [18]): 0/95
- Fetal Viability: Normal Fetuses/Implantation Sites (Percent) (pregnancy in rats [2]; [18]): 0%
- Number of Rats Pregnant/Number of Rats Treated (pregnancy in rats [2]; [18]): 0/10
- Number of Rats Pregnant/Number of Rats Treated (Percent) (pregnancy in rats [2]; [18]): 0%
- Serum Progesterone (Percent Control) (pregnancy in rats [2]; [19]): 29 Percent Control
- Serum Progesterone ng/ml + S.E. (pregnancy in rats [2]; [19]): 13.4 + 2.0 ng/ml
- Adrenal Wt. mg + SE (pregnancy in rats [2]; [20]): 72.1 + 2.1 mg
- Fetal Viability: Normal Fetuses/Implantation Sites (pregnancy in rats [2]; [20]): 0/111
- Fetal Viability: Normal Fetuses/Implantation Sites (Percent) (pregnancy in rats [2]; [20]): 0%
- Number of Rats Pregnant/Number of Rats Treated (pregnancy in rats [2]; [20]): 0/10
- Number of Rats Pregnant/Number of Rats Treated (Percent) (pregnancy in rats [2]; [20]): 0%
- Serum Progesterone (Percent Control) (pregnancy in rats [3]; [21]): 33 Percent Control
- Serum Progesterone ng/ml + S.E. (pregnancy in rats [3]; [21]): 19.0 + 7.4 ng/ml
- Adrenal Wt. mg + SE (pregnancy in rats [3]; [22]): 60.0 + 4.2 mg
- Fetal Viability: Normal Fetuses/Implantation Sites (pregnancy in rats [3]; [22]): 6/82
- Fetal Viability: Normal Fetuses/Implantation Sites (Percent) (pregnancy in rats [3]; [22]): 7%
- Number of Rats Pregnant/Number of Rats Treated (pregnancy in rats [3]; [22]): 1/8
- Number of Rats Pregnant/Number of Rats Treated (Percent) (pregnancy in rats [3]; [22]): 13%
- Serum Progesterone (Percent Control) (pregnancy in rats [3]; [23]): 18 Percent Control
- Serum Progesterone ng/ml + S.E. (pregnancy in rats [3]; [23]): 10.4 + 2.5 ng/ml
- Adrenal Wt. mg + SE (pregnancy in rats [3]; [24]): 62.0 + 2.5 mg
- Fetal Viability: Normal Fetuses/Implantation Sites (pregnancy in rats [3]; [24]): 0/81
- Fetal Viability: Normal Fetuses/Implantation Sites (Percent) (pregnancy in rats [3]; [24]): 0%
- Number of Rats Pregnant/Number of Rats Treated (pregnancy in rats [3]; [24]): 0/7
- Number of Rats Pregnant/Number of Rats Treated (Percent) (pregnancy in rats [3]; [24]): 0%
- Serum Progesterone (Percent Control) (pregnancy in rats [3]; [25]): 24 Percent Control
- Serum Progesterone ng/ml + S.E. (pregnancy in rats [3]; [25]): 13.8 + 1.7 ng/ml
- Adrenal Wt. mg + SE (pregnancy in rats [3]; [26]): 56.8 + 2.0 mg
- Fetal Viability: Normal Fetuses/Implantation Sites (pregnancy in rats [3]; [26]): 0/60
- Fetal Viability: Normal Fetuses/Implantation Sites (Percent) (pregnancy in rats [3]; [26]): 0%
- Number of Rats Pregnant/Number of Rats Treated (pregnancy in rats [3]; [26]): 0/6
- Number of Rats Pregnant/Number of Rats Treated (Percent) (pregnancy in rats [3]; [26]): 0%
